# Data: US20130165489A1, “Small Molecule Modulators of HIV-1 Capsid Stability and Methods Thereof” (The Trustees of the University of Pennsylvania, priority 2010, published 2013)
# “Also recorded” adds a separate entry of the source.
# Columns and labels:
# DENV (serotypes 1-4) = experiment: CPE assay, Dengue serotypes 1-4; assay type: cell-based, Dengue virus
# [1] = test system: HIV-1 93IN101 (subtype C clinical isolate); experiment: Anti-HIV efficacy in human PBMCs, isolate 93IN101; assay type: cell-based
# Description: (§1) HIV human peripheral blood mononuclear cell (PBMC) assays were performed as described previously (Lanier et al., 2010, Antimicrob. Agents Chemother. 54:2901-09; Ptak et al., 2008, Antimicrob. Agents Chemother. 52:1302-17). Briefly, fresh PBMCs, seronegative for HIV and hepatitis B virus (HBV), were isolated from blood samples of the screened donors (Biological Specialty Corporation, Colmar, Pa.) by using lymphocyte separation medium (LSM; density, 1.078±0.002 g/ml; Cellgro; Mediatech, Inc.) by following the manufacturer's instructions. Cells were stimulated by incubation in 4 μg/mL phytohemagglutinin (PHA; Sigma) for 48 to 72 h. Mitogenic stimulation was maintained by the addition of 20 U/mL recombinant human interleukin-2 (rhIL-2; R&D Systems, Inc.) to the culture medium. PHA-stimulated PBMCs from at least two donors were pooled, diluted in fresh medium, and added to 96-well plates at 5×10^4 cells/well. Cells were infected (final multiplicity of infection [MOI] of ≅0.1) in the presence of 9 different concentrations of test compounds (triplicate wells/concentration) and incubated for 7 days. […] Following removal of supernatant samples, compound cytotoxicity was measured by the addition of 3-(4,5-dimethylthiazol-2-yl)-5-(3-carboxymethoxyphenyl)-2-(4-sulfophenyl)-2H-tetrazolium (MTS; CellTiter 96 reagent; Promega) by following the manufacturer's instructions. […]
# mutant HIV-1 CA proteins = experiment: Binding site analysis via SPR, mutant CA proteins; conditions: alanine mutants of residues 137 and R173, 27.5 μM
# Description: Wild-type and mutant HIV-1 CA proteins were attached to the surface by standard amine chemistry as described above. Compound CMPD-E was injected over these surfaces at a concentration of 27.5 μM at a flow rate of 50 μL min^−1, for a 2-min association phase, followed by a 5-min dissociation phase, and the response at equilibrium recorded. For comparison, and to take into account minor differences in the ligand density of the mutant surfaces, responses were normalized to the theoretical Rmax, assuming a 2:1 interaction.
# Data analysis was performed using BIAEvaluation 4.0 software. The responses of a buffer injection and responses from the reference flow cell were subtracted to account for nonspecific binding. In order to obtain the equilibrium dissociation constants (KD), experimental data were fitted globally to the heterogeneous ligand model. The average parameters generated from a minimum of 4 data sets were used to define the equilibrium dissociation constants (KD1 and KD2). In the mutant CA protein studies, the average maximum response was generated from a minimum of 6 data sets and was used to define the average maximum response for compound CMPD-E binding to wild-type and mutant HIV-1 CA proteins.
# [2] = test system: HIV-1 BCF02 (group O clinical isolate); experiment: Anti-HIV efficacy in human PBMCs, isolate BCF02; assay type: cell-based
# Description: as §1
# [3] = Human immunodeficiency virus 1, PBMC
compound,measurement,setting,value
"O=C(O)c1ccc(-c2nc(-c3ccccc3)c(-c3ccccc3)[nH]2)cc1 [CMPD-E, 4-(4,5-diphenyl-1H-imidazol-2-yl)benzoic acid]",anti-DENV activity,DENV (serotypes 1-4),no inhibitory effects; also recorded: retains none of the anti-DENV activity
same,IC50,DENV (serotypes 1-4); Dengue virus,> 100 µM
same,IC50,[1]; [3],48.4 µM
same,Antiviral index (TC50/IC50),[1]; PBMC,>2.07
same,reduction of binding to mutant CA compared to wild-type CA,mutant HIV-1 CA proteins,> 2 fold
same,IC50,[2]; [3],71.3 µM
same,Antiviral index (TC50/IC50),[2]; PBMC,>1.4
